Like-named read-outs stand apart in the source and are kept apart here.
Legend:
[1] = target: T1, EGFR with insertion SVD between D770 and N771 (mutEGFR D770_N771insSVD) (Homo sapiens, UniProt P00533, DUP768-770); assay: Exon20-Mutant-EGFR(D770_N771insSVD) kinase assay (TR-FRET); assay type: biochemical; settings: 2 mM ATP, Table 2
T1 construct: amino acids R669 to A1210; made in house; host or cells: Sf9 insect cells (baculovirus)

Bub1 = target: T2, Bub1 (Homo sapiens, UniProt O43683); assay: Bub1 high ATP kinase assay (TR-FRET); assay type: biochemical; settings: 2 mM ATP, Table 3
T2 construct: catalytic domain of human Bub1 (amino acids 704-1085); His6 (N); made in house; host or cells: insect cells (Hi5)
T2 sequence (O43683 704-1085): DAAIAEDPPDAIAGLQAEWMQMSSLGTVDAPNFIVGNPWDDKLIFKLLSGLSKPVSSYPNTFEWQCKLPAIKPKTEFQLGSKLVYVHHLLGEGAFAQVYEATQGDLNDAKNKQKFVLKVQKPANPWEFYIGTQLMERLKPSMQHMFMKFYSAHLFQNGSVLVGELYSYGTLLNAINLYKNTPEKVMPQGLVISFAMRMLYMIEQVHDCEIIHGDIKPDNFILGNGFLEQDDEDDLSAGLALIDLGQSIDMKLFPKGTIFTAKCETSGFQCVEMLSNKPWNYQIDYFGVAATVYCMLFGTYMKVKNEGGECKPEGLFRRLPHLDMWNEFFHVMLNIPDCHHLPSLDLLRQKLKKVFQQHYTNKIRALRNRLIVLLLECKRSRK
Procedure, shortened: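 Read-out was the 665/620 nm TR-FRET ratio after 1 h at 22 °C with EDTA stop mix (streptavidin-XL665, anti-phosphoserine antibody, Eu anti-mouse IgG). Beforehand, a biotinylated peptide was phosphorylated for 60 min at 22 °C under high ATP by His6-tagged human Bub1 residues 704-1085 expressed in Hi5 cells, about 200 ng/ml.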

[2] = target: Ba/F3-EGFR-D770_N771insSVD cells (Homo sapiens, UniProt P00533, DUP768-770, cells depend on it); assay: Ba/F3 cell survival assay, EGFR D770_N771insSVD; assay type: cell-based; settings: Cell Titer-Glo, 48 h, without IL-3; Table 4; read-out: BA/F3 (insSVD) IC50
Ba/F3-EGFR-D770_N771insSVD cells, sequence (P00533 with tags, fused parts or gaps DUP768-770): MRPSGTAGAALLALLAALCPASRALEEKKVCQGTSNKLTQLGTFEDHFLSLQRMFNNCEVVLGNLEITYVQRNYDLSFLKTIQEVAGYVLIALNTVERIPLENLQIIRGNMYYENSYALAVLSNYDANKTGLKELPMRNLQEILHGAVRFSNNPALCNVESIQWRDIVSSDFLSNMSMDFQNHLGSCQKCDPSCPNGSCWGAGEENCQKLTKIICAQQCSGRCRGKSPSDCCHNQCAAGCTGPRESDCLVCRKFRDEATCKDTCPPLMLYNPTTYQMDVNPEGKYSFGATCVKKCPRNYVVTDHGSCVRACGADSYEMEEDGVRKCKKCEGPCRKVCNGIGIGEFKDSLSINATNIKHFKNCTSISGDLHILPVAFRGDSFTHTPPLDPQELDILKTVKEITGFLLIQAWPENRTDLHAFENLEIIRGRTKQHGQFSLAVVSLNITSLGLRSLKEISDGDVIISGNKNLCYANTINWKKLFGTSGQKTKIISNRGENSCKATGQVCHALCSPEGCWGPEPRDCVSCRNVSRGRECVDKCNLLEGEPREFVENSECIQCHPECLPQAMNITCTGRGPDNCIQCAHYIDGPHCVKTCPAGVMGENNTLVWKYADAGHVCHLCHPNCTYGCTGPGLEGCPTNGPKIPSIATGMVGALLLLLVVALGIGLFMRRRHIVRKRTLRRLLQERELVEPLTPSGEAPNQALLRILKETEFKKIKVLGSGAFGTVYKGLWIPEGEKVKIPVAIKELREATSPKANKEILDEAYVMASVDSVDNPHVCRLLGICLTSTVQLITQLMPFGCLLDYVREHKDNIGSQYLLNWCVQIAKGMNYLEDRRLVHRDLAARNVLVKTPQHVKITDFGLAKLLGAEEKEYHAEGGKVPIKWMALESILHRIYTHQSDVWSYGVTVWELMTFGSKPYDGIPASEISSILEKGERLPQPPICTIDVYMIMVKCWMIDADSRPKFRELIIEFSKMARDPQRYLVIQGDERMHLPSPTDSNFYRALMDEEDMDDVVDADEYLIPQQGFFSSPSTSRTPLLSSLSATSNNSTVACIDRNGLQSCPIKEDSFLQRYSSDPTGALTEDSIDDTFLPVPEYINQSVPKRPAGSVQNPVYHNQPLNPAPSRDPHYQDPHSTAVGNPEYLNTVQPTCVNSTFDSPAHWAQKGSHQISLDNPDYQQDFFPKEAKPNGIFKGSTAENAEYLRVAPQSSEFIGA

Ba/F3-EGFR-WT cells = Ba/F3-EGFR-WT cells (Homo sapiens, UniProt P00533); assay: Ba/F3 cell survival assay, wild type EGFR; assay type: cell-based; settings: Cell Titer-Glo, 48 h, with 10 ng/mL EGF; Table 4; read-out: BA/F3 (wild type) IC50
Ba/F3-EGFR-WT cells, sequence (P00533 whole entry, looked up, change not shown): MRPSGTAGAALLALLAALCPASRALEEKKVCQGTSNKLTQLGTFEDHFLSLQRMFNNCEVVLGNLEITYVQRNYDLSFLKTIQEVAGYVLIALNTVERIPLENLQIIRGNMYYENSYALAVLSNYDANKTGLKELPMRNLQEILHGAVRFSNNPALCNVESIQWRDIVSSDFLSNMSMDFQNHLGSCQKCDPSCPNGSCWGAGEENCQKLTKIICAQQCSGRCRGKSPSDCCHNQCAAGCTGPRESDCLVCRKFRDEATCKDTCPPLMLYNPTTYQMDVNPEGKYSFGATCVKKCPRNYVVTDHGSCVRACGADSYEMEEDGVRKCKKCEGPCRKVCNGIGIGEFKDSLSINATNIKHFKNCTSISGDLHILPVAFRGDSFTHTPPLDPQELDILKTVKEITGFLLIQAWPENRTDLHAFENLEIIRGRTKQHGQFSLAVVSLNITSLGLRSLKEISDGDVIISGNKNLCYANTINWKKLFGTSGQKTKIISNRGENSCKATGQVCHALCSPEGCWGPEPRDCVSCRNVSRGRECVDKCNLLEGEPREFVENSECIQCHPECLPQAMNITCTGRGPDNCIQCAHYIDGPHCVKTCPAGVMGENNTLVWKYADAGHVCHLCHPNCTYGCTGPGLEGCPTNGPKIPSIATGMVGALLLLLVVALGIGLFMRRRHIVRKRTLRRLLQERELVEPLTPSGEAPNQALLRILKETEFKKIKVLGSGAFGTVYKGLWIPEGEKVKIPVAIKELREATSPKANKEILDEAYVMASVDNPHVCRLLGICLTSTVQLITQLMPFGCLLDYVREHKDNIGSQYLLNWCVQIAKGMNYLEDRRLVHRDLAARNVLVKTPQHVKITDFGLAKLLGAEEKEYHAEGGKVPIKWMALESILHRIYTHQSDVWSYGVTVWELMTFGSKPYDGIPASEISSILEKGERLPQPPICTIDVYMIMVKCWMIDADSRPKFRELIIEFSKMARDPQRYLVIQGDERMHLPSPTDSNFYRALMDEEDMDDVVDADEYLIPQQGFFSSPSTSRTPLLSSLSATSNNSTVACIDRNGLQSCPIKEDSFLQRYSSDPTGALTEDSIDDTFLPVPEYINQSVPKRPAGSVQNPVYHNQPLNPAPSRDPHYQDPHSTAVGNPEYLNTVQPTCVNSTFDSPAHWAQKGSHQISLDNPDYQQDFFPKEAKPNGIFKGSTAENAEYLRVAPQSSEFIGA

[3] = Bub1 high ATP (2 mM) IC50, TR-FRET

T1 sequence (P00533 other isoform, or with tags, fused parts or gaps DUP768-770): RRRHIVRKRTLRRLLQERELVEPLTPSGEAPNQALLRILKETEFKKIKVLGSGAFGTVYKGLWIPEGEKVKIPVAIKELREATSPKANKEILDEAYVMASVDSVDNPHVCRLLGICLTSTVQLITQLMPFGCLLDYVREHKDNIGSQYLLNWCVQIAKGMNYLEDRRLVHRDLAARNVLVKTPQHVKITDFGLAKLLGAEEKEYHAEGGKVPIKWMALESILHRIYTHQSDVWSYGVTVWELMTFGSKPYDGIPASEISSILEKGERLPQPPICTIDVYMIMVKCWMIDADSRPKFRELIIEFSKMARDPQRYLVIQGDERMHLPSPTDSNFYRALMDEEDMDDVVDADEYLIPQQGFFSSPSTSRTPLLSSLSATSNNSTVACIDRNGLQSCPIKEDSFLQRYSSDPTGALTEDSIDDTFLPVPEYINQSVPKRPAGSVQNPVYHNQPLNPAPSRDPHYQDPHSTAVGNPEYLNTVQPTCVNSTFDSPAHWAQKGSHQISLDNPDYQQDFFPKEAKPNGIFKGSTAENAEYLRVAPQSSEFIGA

Row | Compound | mutEGFR (D770_N771insSVD) kinase assay IC50 [1] | IC50 (Bub1; [3]) | GI50 [2] | GI50 (Ba/F3-EGFR-WT cells) | IC50 (Bub1; read-out: Bub1 high ATP (2 mM) IC50, TR-FRET)
1 | COCC(C)Oc1cnccc1-c1[nH]c2c(c1Nc1cccc(Cl)c1C)C(=O)N[C@H](C)C2 (stereo partly drawn) [Example 105, (6R)-3-(3-chloro-2-methylanilino)-2-{3-[(1-methoxypropan-2-yl)oxy]pyridin-4-yl}-6-methyl-1,5,6,7-tetrahydro-4H-pyrrolo[3,2-c]pyridin-4-one] | 0.324 nM | 3700 nM | 44.7 nM | 884 nM | 
2 | COc1c(Cl)cccc1Nc1c(-c2ccncc2OCC2CCCCO2)[nH]c2c1C(=O)NCC2C (single isomer, unassigned) [Example 48, 3-(3-chloro-2-methoxy-anilino)-7-methyl-2-[3-(tetrahydropyran-2-ylmethoxy)-4-pyridyl]-1,5,6,7-tetrahydropyrrolo[3,2-c]pyridin-4-one] | 0.227 nM | 9130 nM | 25.7 nM | 611 nM | 
3 | COc1c(Cl)cccc1Nc1c(-c2ccncc2OC[C@@H]2CN(CC(F)F)CCO2)[nH]c2c1C(=O)N[C@H](C)C2 [Example 12, (6R)-3-(3-chloro-2-methoxyanilino)-2-(3-{[(2S)-4-(2,2-difluoroethyl)morpholin-2-yl]methoxy}pyridin-4-yl)-6-methyl-1,5,6,7-tetrahydro-4H-pyrrolo[3,2-c]pyridin-4-one] | 0.172 nM | > 20000 nM | 48.7 nM | 719 nM | 
4 | COc1c(Cl)cccc1Nc1c(-c2ccncc2OC[C@@H]2CCCCO2)[nH]c2c1C(=O)NC1(CCC1)C2 [Example 127, 3′-(3-chloro-2-methoxyanilino)-2′-(3-{[(2S)-oxan-2-yl]methoxy}pyridin-4-yl)-1′,7′-dihydrospiro[cyclobutane-1,6′-pyrrolo[3,2-c]pyridin]-4′(5′H)-one] | 0.51 nM | 1440 nM | 12.1 nM | 406 nM | 
5 | COc1c(Cl)cccc1Nc1c(-c2ccncc2OCC2COC(C)(C)CO2)[nH]c2c1C(=O)NC1(CCC1)C2 (stereo not drawn) [Example 129, 3′-(3-chloro-2-methoxyanilino)-2′-{3-[(5,5-dimethyl-1,4-dioxan-2-yl)methoxy]pyridin-4-yl}-1′,7′-dihydrospiro[cyclobutane-1,6′-pyrrolo[3,2-c]pyridin]-4′(5′H)-one] | 0.257 nM | 1310 nM | 14 nM | 293 nM | 
6 | COCC(C)Oc1cnccc1-c1[nH]c2c(c1Nc1cccc(Cl)c1OC)C(=O)N[C@@H]1CCC[C@H]21 (single isomer, unassigned) [Example 50] | 0.393 nM | > 20000 nM | 349 nM | 1650 nM | 
7 | COc1c(Cl)cccc1Nc1c(-c2ccncc2OCC2COCCO2)[nH]c2c1C(=O)NCC2C (single isomer, unassigned) [Example 36, 3-(3-chloro-2-methoxy-anilino)-2-[3-(1,4-dioxan-2-ylmethoxy)-4-pyridyl]-7-methyl-1,5,6,7-tetrahydropyrrolo[3,2-c]pyridin-4-one] | 0.331 nM | 4900 nM | 75.3 nM | 963 nM | 
8 | COc1c(Cl)cccc1Nc1c(-c2ccncc2OCCC2CCCCO2)[nH]c2c1C(=O)N[C@H](C)C2 (single isomer, unassigned) [Example 88] | 0.326 nM | 978 nM | 70.4 nM | 634 nM | 
9 | COc1c(Cl)cccc1Nc1c(-c2ccncc2OCC2COC(C)(C)CO2)[nH]c2c1C(=O)NCC2C (single isomer, unassigned) [Example 97, 3-(3-chloro-2-methoxy-anilino)-2-[3-[(5,5-dimethyl-1,4-dioxan-2-yl)methoxy]-4-pyridyl]-7-methyl-1,5,6,7-tetrahydropyrrolo[3,2-c]pyridin-4-one] | 0.796 nM |  | 32.1 nM | 1130 nM | > 20000 nM

Reference: patent US20230064983A1 (priority 2020, published 2023)
